The nature of series [1]: UV absorption (E1%cm, extinction, λmax) by absorption spectrophotometer. Format: physicochemical. Conditions: for E1%cm: at λmax 310 nm. As to the method:
(§1) p-Methoxy cinnamido propyl dimethyl amine was obtained from Galaxy Surfactants Ltd., Mumbai. Vinyl benzyl chloride was purchased from Seimi Chemical Co., Ltd. Japan. N, N-Diethyl acrylamide was obtained from Sigma Aldrich, India. N-isoproyl acrylamide was synthesized as per the literature procedure (Polym. J., Vol. 25, No. 6, pp. 561-567). Surface tension was measured on Kruss tensiometer by Wilhelmy plate method. Intrinsic viscosity was measured by Ubbelohde viscometer. NMR spectroscopy was done on 400 MHz Bruker machine. Infrared spectra were recorded on FTIR from Perkin Elmer (Spectrum 100). UV Varian's, Cary 50 absorption spectrophotometer was used for UV absorption data.

Series [2] in a line: Surface tension, Kruss tensiometer, Wilhelmy plate method. Format: physicochemical. Here is the method: as §1
Series [3] can be described thus: Photo-degradation study of cream formulations under UV lamp, 200 h. The class given is physicochemical. The note with it: Cream of Example VIII (10% copolymer of Example II).
Assay in series [4]: as above
The class given is physicochemical. The note with it: Cream Example VII (without copolymer of Example II). Here is the method: Example VII is a cream formulation with OMC and Avobenzone is exposed for 200 h using UV light from a UV lamp.

For series [5] the following is noted: commercial UV absorbers; cited from earlier work.

SMILES strings stand for the structures.

As to `COc1ccc(C=CC(=O)NCCCN(C)C)cc1` [Formula IIa, p-methoxy cinnamidopropyl dimethyl amine], in series [1] (at 290 nm), the molar extinction coefficient is 24,000.

Regarding `C=Cc1ccc(C[N+](C)(C)CCCNC(=O)/C=C/c2ccc(OC)cc2)cc1` [Formula IVa, p-methoxy cinnamido propyl p-vinyl benzyl dimethyl ammonium chloride], the E1%cm in series [1] worked out at 568; in series [1] (listed as Step (a) of Example I), 463. In addition, the “Surface tension of 1% aqueous solution” value in series [2] is reported as 42.6 mN/m.

Regarding `COc1ccc(C(=O)CC(=O)c2ccc(C(C)(C)C)cc2)cc1` [Avobenzone], in series [3], the “Component content, UV exposure 200 h” value is given as 1.5%; the “Component content, Unexposed” value was 2.0%; the “Component content, Zero h” value turned out to be 2.0%. Moreover, in series [4], the “Component content, UV exposure 200 h” value was found to be 0.1%; the “Component content, Unexposed” value is reported as 2.0%; the “Component content, Zero h” value stood at 2.0%. The λmax in series [5] is recorded as 360 nm.

Turning to `CCCCC(CC)COC(=O)C=Cc1ccc(OC)cc1` (stereo not drawn) [OMC, Octyl methoxy cinnamate], in series [3], the “Component content, UV exposure 200 h” value amounted to 4.5%; the “Component content, Unexposed” value worked out at 6.0%; the “Component content, Zero h” value is reported as 6.0%. Besides, in series [4], the “Component content, UV exposure 200 h” value is 2%; the “Component content, Unexposed” value is listed as 6.0%; the “Component content, Zero h” value is given as 6%. The λmax in series [5] is listed as 302 nm.
